Laboratory results from US20240174618A1, “SUBSTITUTED (2-HETEROARYLOXYPHENYL)SULFONATES, SALTS THEREOF AND THEIR USE AS HERBICIDAL AGENTS” (Bayer Aktiengesellschaft, priority 2021, published 2024).

Columns and labels:
Format in all cases: in vivo
[1] = system: Echinochloa crus-galli (ECHCG); assay: A. Herbicidal pre-emergence efficacy, ECHCG; conditions: 1280 g/ha; scored visually after about 3 weeks vs untreated controls
Description: (§1) Seeds of mono- and dicotyledonous weed plants were placed in plastic pots in sandy loam soil (doubly sown with one species each of mono- or dicotyledonous weed plants per pot) and covered with soil. The compounds of the invention, formulated in the form of wettable powders (WP) or as emulsion concentrates (EC), were then applied onto the surface of the covering soil as aqueous suspension or emulsion with addition of 0.5% additive at a water application rate of 600 liters per hectare (converted). After the treatment, the pots were placed in a greenhouse and kept under good growth conditions for the test plants. After about 3 weeks, the efficacy of the preparations was scored visually in comparison with untreated controls as percentages.
(§2) For example, • 100% efficacy=plants have died, • 0% efficacy=like untreated control plants.
(§3) Tables A1a to A12c below show the effects of selected compounds of the general formula (I) according to table 1 on various harmful plants at an application rate corresponding to 1280 g/ha or less, which were obtained by the experimental procedure mentioned above.

[2] = system: Kochia scoparia (KCHSC); assay: A. Herbicidal pre-emergence efficacy, KCHSC
Description: as §1, §2, §3

[3] = system: Veronica persica (VERPE); assay: A. Herbicidal pre-emergence efficacy, VERPE
Description: as §1, §2, §3

[4] = system: Stellaria media (STEME); assay: B. Herbicidal post-emergence efficacy, STEME
Method: (§4) Seeds of mono- and dicotyledonous weed plants were placed in plastic pots in sandy loam soil (doubly sown with in each case one species of mono- or dicotyledonous weed plants per pot), covered with soil and cultivated in a greenhouse under controlled growth conditions. 2 to 3 weeks after sowing, the test plants were treated at the one-leaf stage. The compounds of the invention, formulated in the form of wettable powders (WP) or as emulsion concentrates (EC), were applied onto the green parts of the plants as aqueous suspension or emulsion with addition of 0.5% additive at a water application rate of 600 liters per hectare (converted). After the test plants had been kept in the greenhouse under optimum growth conditions for about 3 weeks, the activity of the preparations was rated visually in comparison to untreated controls.
(§5) For example, • 100% efficacy=plants have died, • 0% efficacy=like untreated control plants
(§6) Tables B1a to B12c below show the effects of selected inventive compounds of the general formula (I) according to table 1 on various harmful plants at an application rate corresponding to 1280 g/ha or less, which were obtained by the experimental procedure mentioned above.

[5] = system: Abutilon theophrasti (ABUTH); assay: A. Herbicidal pre-emergence efficacy, ABUTH; conditions: scored visually after about 3 weeks vs untreated controls
Description: as §1, §2, §3

[6] = system: Kochia scoparia (KCHSC); assay: B. Herbicidal post-emergence efficacy, KCHSC; conditions: for Post-emergence efficacy against KCHSC in %: rated visually after about 3 weeks; for Post-emergence efficacy against KCHSC: 1280 g/ha
Method: as §4, §5, §6

[7] = system: Digitaria sanguinalis (DIGSA); assay: A. Herbicidal pre-emergence efficacy, DIGSA; conditions: scored visually after about 3 weeks vs untreated controls
Description: as §1, §2, §3

[8] = system: Echinochloa crus-galli (ECHCG); assay: B. Herbicidal post-emergence efficacy, ECHCG; conditions: 1280 g/ha, rated visually after about 3 weeks
Method: as §4, §5, §6

[9] = system: Amaranthus retroflexus (AMARE); assay: A. Herbicidal pre-emergence efficacy, AMARE
Description: as §1, §2, §3

[10] = system: Amaranthus retroflexus (AMARE); assay: B. Herbicidal post-emergence efficacy, AMARE
Method: as §4, §5, §6

[11] = system: Abutilon theophrasti (ABUTH); assay: B. Herbicidal post-emergence efficacy, ABUTH; conditions: rated visually after about 3 weeks
Method: as §4, §5, §6

[12] = system: Veronica persica (VERPE); assay: B. Herbicidal post-emergence efficacy, VERPE
Method: as §4, §5, §6

[13] = system: Poa annua (POAAN); assay: B. Herbicidal post-emergence efficacy, POAAN; conditions: 1280 g/ha
Method: as §4, §5, §6

[14] = system: Stellaria media (STEME); assay: A. Herbicidal pre-emergence efficacy, STEME
Description: as §1, §2, §3

[15] = system: Setaria viridis (SETVI); assay: A. Herbicidal pre-emergence efficacy, SETVI
Description: as §1, §2, §3

[16] = system: Poa annua (POAAN); assay: A. Herbicidal pre-emergence efficacy, POAAN; conditions: dosage 1280 g/ha
Description: as §1, §2, §3

[17] = system: Lolium rigidum (LOLRI); assay: A. Herbicidal pre-emergence efficacy, LOLRI; conditions: dosage 1280 g/ha
Description: as §1, §2, §3

[18] = system: Matricaria inodora (MATIN); assay: A. Herbicidal pre-emergence efficacy, MATIN
Description: as §1, §2, §3

[19] = pre-emergence, dosage 1280 g/ha

Row | SMILES | Pre-emergence efficacy against ECHCG [1] | Pre-emergence efficacy against KCHSC [2, 19] | Pre-emergence efficacy against VERPE in % ([3]; 1280 g/ha) | Post-emergence efficacy against STEME ([4]; 1280 g/ha) | Pre-emergence efficacy against ABUTH ([5]; 1280 g/ha) | Post-emergence efficacy against KCHSC in % ([6]; 80 g/ha) | Post-emergence efficacy against KCHSC in % ([6]; 320 g/ha) | Post-emergence efficacy against KCHSC [6] | Pre-emergence efficacy against DIGSA ([7]; 1280 g/ha) | Pre-emergence efficacy against AMARE in % ([9]; 320 g/ha) | Pre-emergence efficacy against AMARE in % ([9]; 1280 g/ha) | Post-emergence efficacy against AMARE ([10]; 80 g/ha) | Post-emergence efficacy against AMARE ([10]; 320 g/ha) | Post-emergence efficacy against AMARE ([10]; 1280 g/ha) | Post-emergence efficacy against ABUTH in % ([11]; 1280 g/ha) | Post-emergence efficacy against VERPE ([12]; 320 g/ha) | Post-emergence efficacy against VERPE ([12]; 1280 g/ha) | Post-emergence efficacy against POAAN [13] | Pre-emergence efficacy against STEME ([14]; dosage 1280 g/ha) | Pre-emergence efficacy against SETVI ([15]; dosage 1280 g/ha) | also measured
1 | Cc1cccc(Oc2ncc(Cl)cn2)c1OS(=O)(=O)CCCC(F)(F)C(F)(F)F [Example I-69] | 90% | 90% | 100% | 100% | 90% | 90% | 100% | 100% | 90% | 100% | 100% | 100% | 100% | 100% | 100% | 100% | 100% | 90% | 90% | 100% | Post-emergence efficacy against STEME ([4]; 320 g/ha): 90%; Post-emergence efficacy against ECHCG in % [8]: 100%; Pre-emergence efficacy against AMARE in % ([9]; 80 g/ha): 90%; Post-emergence efficacy against ABUTH in % ([11]; 80 g/ha): 90%; Post-emergence efficacy against ABUTH in % ([11]; 320 g/ha): 90%; Post-emergence efficacy against VERPE ([12]; 80 g/ha): 100%
2 | COCCS(=O)(=O)Oc1ccccc1Oc1ncc(Cl)cn1 [Example I-20] | 100% | 100% |  | 100% | 100% |  | 90% | 100% | 100% |  | 90% |  | 90% | 100% | 90% | 90% | 100% | 90% | 100% | 100% | Pre-emergence efficacy against POAAN [16]: 90%; Pre-emergence efficacy against KCHSC ([2]; 80 g/ha, scored visually after about 3 weeks vs untreated controls): 90%; Pre-emergence efficacy against KCHSC ([2]; pre-emergence, dosage 320 g/ha): 90%; Pre-emergence efficacy against LOLRI [17]: 90%; Pre-emergence efficacy against ABUTH ([5]; 80 g/ha): 100%; Pre-emergence efficacy against ABUTH ([5]; 320 g/ha): 100%; Pre-emergence efficacy against DIGSA ([7]; 320 g/ha): 100%; Pre-emergence efficacy against MATIN [18, 19]: 100%; Pre-emergence efficacy against STEME ([14]; dosage 320 g/ha): 100%; Pre-emergence efficacy against SETVI ([15]; dosage 320 g/ha): 90%
3 | O=S(=O)(CCC(F)=C(F)F)Oc1c(Br)cccc1Oc1ncc(Cl)cn1 [Example I-72] |  | 90% | 90% | 100% | 90% | 90% | 100% | 100% | 100% | 90% | 100% | 100% | 100% | 100% | 100% | 100% | 100% | 90% | 100% | 100% | Pre-emergence efficacy against POAAN [16]: 100%; Pre-emergence efficacy against VERPE in % ([3]; 320 g/ha): 90%; Pre-emergence efficacy against LOLRI [17]: 90%; Post-emergence efficacy against STEME ([4]; 80 g/ha): 90%; Post-emergence efficacy against STEME ([4]; 320 g/ha): 100%; Pre-emergence efficacy against DIGSA ([7]; 320 g/ha): 90%; Post-emergence efficacy against ECHCG in % [8]: 100%; Post-emergence efficacy against ABUTH in % ([11]; 320 g/ha): 90%; Post-emergence efficacy against VERPE ([12]; 80 g/ha): 100%; Pre-emergence efficacy against STEME ([14]; dosage 320 g/ha): 90%; Pre-emergence efficacy against SETVI ([15]; dosage 320 g/ha): 90%
4 | CS(=O)(=O)Oc1ccccc1Oc1ncc(Cl)cn1 [Example I-1] | 100% | 100% | 100% |  | 100% | 90% | 100% | 100% |  | 100% | 100% | 100% | 100% | 100% |  | 90% | 100% |  |  | 100% | Pre-emergence efficacy against POAAN [16]: 90%; Pre-emergence efficacy against KCHSC ([2]; pre-emergence, dosage 320 g/ha): 100%; Pre-emergence efficacy against VERPE in % ([3]; 320 g/ha): 100%; Pre-emergence efficacy against MATIN ([18]; 320 g/ha, scored visually after about 3 weeks vs untreated controls): 90%; Pre-emergence efficacy against MATIN [18, 19]: 100%; Pre-emergence efficacy against AMARE in % ([9]; 80 g/ha): 100%; Pre-emergence efficacy against SETVI ([15]; dosage 320 g/ha): 90%
